≈ marks a conversion by molar mass, not a printed value. Where two headings read alike, the source gives them in different places.
Experiments:
[1] = system: MSSA (Meticillin Sensitive Staphylococcus aureus, ATCC 29213); test: MIC test on MSSA bacteria (serial two-fold dilution, 96-well plate)
[2] = system: MRSA (Meticillin Resistant Staphylococcus aureus, ATCC 43300); test: MIC test on MRSA bacteria (serial two-fold dilution, 96-well plate)
[3] = Aqueous solubility of metal sulfides without and with solubilizing additive
Protocol: Mix the 90 mL of the SO4Cu solution with 10 mL of the Na2S solution. […] Separate it by filtration.
Place this precipitate in 100 mL of water in a stirred container.
With constant stirring, drop a very concentrated solution of NH3 into the water very slowly.
Mix the 97 mL of the NO3Ag solution with 3 mL of the Na2S solution. […] Separate it by filtration.
With constant stirring, drop very slowly a concentrated solution of ammonium citrate (NH4)5(C6H4O7)2H3.
Dissolve 77 mg of Cl3Au in 95 mL of water. Mix the 95 mL of the Cl3Au solution with 5 mL of the Na2S solution. […] Separate it by filtration.
While stirring constantly, drop a very concentrated solution of potassium dichromate very slowly.

[4] = aqueous solutions, 24 h at 37° C.

Molecule Cc1onc(-c2ccccc2)c1C(=O)N[C@@H]1C(=O)N2[C@@H]1SC(C)(C)[C@@H]2C(=O)O [Oxacilline, reference compound] has an MIC ([1]; Staphylococcus aureus, 24 h, read-out: MIC MSSA) of 0.25 µg/mL (≈ 0.623 µM) and an MIC ([2]; Staphylococcus aureus, 24 h, read-out: MIC MRSA) of 256 µg/mL (≈ 638 µM).

In the case of [Au+3].[Au+3].[S-2].[S-2].[S-2] [S3Au2, gold sulfide], the “aqueous Au concentration reached” value ([3]; addition of potassium dichromate alone or an equimolar mixture of potassium dichromate and ammonia) is reported as “at least 0.2 g/l”, the “aqueous concentration in Au reached” value ([3]; addition of potassium dichromate, or potassium dichromate and ammonia, Example 3) is reported as “at least 0.2 g.l^−1” and the “maximum concentration in aqueous solution” value ([3]; without additive) is reported as “undetectable”. For the same molecule, the “maximum concentration in water” value ([3]; without additive, Examples 1 and 3) was “undetectable”.

With O=S(=O)([O-])[O-].[Cu+2] [V, copper sulfate] the “MIC MSSA” value [1, 4] was 78 µg/mL and the “MIC MRSA” value [2, 4] was 78 to 157 µg/mL.

For copper sulfide [SCu], the “aqueous concentration in Cu reached” value [3] was “at least 0.2 g.l^−1”, the “aqueous concentration of Cu reached” value [3] was at least 0.2 g/L and the “maximum concentration in aqueous solution” value [3] was 0.33 mg/L. The “maximum concentration in water” value [3] was 0.33 mg/L.

From US11547722B2, “Bactericides and antifungal agents” (priority 2017, dated 2023)
